# Reference: PMC8878317, “Chemogenomics identifies acetyl-coenzyme A synthetase as a target for malaria treatment and prevention” (Cell Chemical Biology, 2022)
# Where two headings read alike, the source gives them in different places.
# What was measured:
# Type in all cases: cell-based
# [1] = tested on: P. falciparum Dd2:T648M (CRISPR edited PfAcAS); experiment: Blood-stage dose-response assay, CRISPR-edited Dd2:T648M line; conditions: Plasmodium falciparum, mean ± SD, n bioreplicates
# Method: (§1) For in vitro–selected lines, drug susceptibility was measured by SYBR Green I–based assay ([Johnson et al., 2007]; [Smilkstein et al., 2004]). Ring-stage parasites were cultured for 72 hr at 1% hematocrit and 1% starting parasitemia in 384-well black clear-bottom plates containing test compounds plated in triplicate in 12-point serial dilutions. Lysis buffer (0.16% w/v saponin, 1.6% Triton X-100, 5 mM EDTA, and 20 mM Tris-HCl, pH 7.4) with SYBR Green I fluorescent dye (Invitrogen) was added, and fluorescence readings were taken (excitation at 494 nm, emission at 530 nm). Alternatively, Dd2-B2 ring-stage cultures at 0.3% parasitemia and 1% hematocrit were exposed for 72 hr to a range of ten drug concentrations that were 2-fold serially diluted in duplicates along with drug-free controls. Parasite survival was assessed by flow cytometry on an Accuri C6 (BD Biosciences) using SYBR Green and MitoTracker Deep Red FM (Life Technologies) as nucleic acid stain and vital dyes respectively. EC50 values were calculated using a nonlinear regression curve fit in Prism Software version 8 (GraphPad).
# (§2) Mutant PfAcAS-A597V and PfAcAS-T648M parasites were generated using CRISPR/Cas9. The guide RNAs for PfAcAS-A597V (5′-[…]-3′; 5′-[…]-3′) and for PfAcAS-T648M (5′-[…]-3′) were designed using Benchling (https://benchling.com/) to targeting sites in PfAcAS that were 6-14 bp upstream of the A597 codon and 6 bp downstream of the T648 codon respectively. Complementary oligos encoding the gRNA sequences (5′- tatt[…]-3’ / 5’-aaac[…]-3’; 5’-tatt[…]-3’ / 5’-aaac[…]-3’ and 5’- tattg[…]-3’ / 5’-aaac[…]c-3’ ) were phosphorylated using T4 polynucleotide kinase and annealed (95°C for 5 min, then step down of 5°C/min to 25°C) prior to ligation into the BbsI-digested pDC2-coCas9-U6.2-hDHFR plasmid ([Lim et al., 2016]). The donor template for PfAcAS-A597V was synthesized (ThermoFisher) as a 700 bp Genestring fragment spanning position 1468 to 2168 of the PfAcAS gene, and the donor for PfAcAS-T648M synthesized as a 829 bp fragment spanning position 1468 to 2297 and inserted into the AatII/EcoRI sites of the pDC2-coCas9-gRNA-hDHFR plasmid by Gibson assembly. Ring-stage parasites (Dd2) at 5% parasitemia were transfected by electroporation (BioRad Gene Pulser II at 0.310 kV and 950 μF) with 50 μg of each plasmid (plasmid 1: pDC2-coCas9-AcAS-A597V-gRNA1-hDHFR, plasmid 2: pDC2-coCas9-gRNA2-hDHFR, or plasmid 3: pDC2-coCas9-AcAS-T648M-gRNA1-hDHFR), and parasites selected for 10 days with 2.5 nM WR99210 (Jacobus Pharmaceuticals), followed by removal of drug pressure. After confirmation of editing in the bulk culture, clones were isolated by serial limiting dilution and confirmed by Sanger sequencing after PCR amplification from genomic DNA using forward primer 5′-[…]-3′ and reverse primer 5′-[…]-3′ (for A597V) and 5′-[…]-3′ (for T648M).
# P. falciparum Dd2-B2 = experiment: Blood-stage dose-response assay (72 hr), Dd2 / Dd2-B2 parent; conditions: Plasmodium falciparum
# Method: (§3) The 3D7-A10 clone has been used in previous in vitro drug selection and sequencing efforts ([Cowell et al., 2018]). Dd2 parasites were obtained from T. Wellems (NIAID, NIH). Dd2-B2 is a genetically homogeneous line that was cloned from Dd2 by limiting dilution in the Fidock lab. Parasite strains were cultured in 3-5% human O+ hematocrit in RPMI 1640 (Life Technologies) supplemented with 28 mM NaHCO3, 25 mM HEPES, and hypoxanthine ([…]). Depending on the parasite line, the media either contained gentamycin (25 μg/mL), or no antibiotic and was additionally supplemented with 0.5% AlbuMAX II (Life Technologies) and/or O+ human serum (heat inactivated and pooled). Blood and serum products were obtained from Interstate Blood Bank. Cultures were maintained at 37°C in 1.1% O2, 4% CO2, and 95% N2. Parasite populations were synchronized by 5% sorbitol treatment ([Lambros and Vanderberg, 1979]).
# as §1
# [2] = tested on: P. falciparum Dd2:A597V (CRISPR edited PfAcAS); experiment: Blood-stage dose-response assay, CRISPR-edited Dd2:A597V line; conditions: Plasmodium falciparum, mean ± SD, n bioreplicates
# Method: as §1, §2
# P. falciparum 3D7-A10 = experiment: Blood-stage dose-response assay (SYBR Green I, 72 hr), 3D7 / 3D7-A10 parent; conditions: Plasmodium falciparum
# Method: as §3, §1
# [3] = DD2, read-out: Dd2-B2 parent EC50 ± SD (nM)
# [4] = mean ± SD, n bioreplicates, read-out: 3D7-A10 parent EC50 ± SD
Compound,EC50 [1] [nM],EC50 (P. falciparum Dd2-B2; [3]) [nM],EC50 [2] [nM],EC50 (P. falciparum 3D7-A10; [4]) [nM],"EC50 (P. falciparum Dd2-B2; DD2, read-out: P. falciparum Dd2 EC50) [nM]","EC50 (P. falciparum Dd2-B2; DD2, read-out: mean EC50 (nM) ± SD (n)) [nM]","EC50 (P. falciparum 3D7-A10; blood-stage parasites in vitro, read-out: P. falciparum 3D7 half-maximal effective concentration [EC50]) [nM]"
"O=C1C(O)=C([C@H]2CC[C@H](c3ccc(Cl)cc3)CC2)C(=O)c2ccccc21 [Atovaquone, reference compound]",0.69 ± 0.38,0.3 ± 0.13,0.55 ± 0.35,0.42 ± 0.05,,,
CCN(CC)S(=O)(=O)c1ccc(Cl)c(C(=O)Nc2ccc3nc(C)sc3c2)c1 [MMV019721],8200,400 ± 72,6200,400 ± 58,400 ± 72,400 ± 72,460 ± 100
O=C(NNC(=O)c1csnn1)c1ccc(Cl)cc1 [MMV084978],12000,150 ± 36,43000,110 ± 28,,,
